SMILES strings stand for the structures.

The subject of this assay is severe sepsis CLP model. As to conditions: severe sepsis CLP mice. The protocol:
To assess the treating activity of the combination of the purified extract prepared in the Examples with antibiotics on severe sepsis, following experiment was performed by using severe sepsis CLP model according to the modified procedure disclosed in the procedure (Daniel Rittirsch, et al. Immuodesign of Experimental sepsis by cecal ligation and puncture. Nature Protocols, Vol. 4(1), pp 31-36, 2009).
Anesthetic(ketamine hydrochloride, 100 mg/kg, Yuhan Pharm. Co.) was intraperitoneally injected to the mice (ICR female, 23-25 g, 8 weeks-old, www.dhbiolink.com) and sepsis was induced to the mice using by CLP (Cecal ligation and puncture). Cavus abdominis medians was dissected and cecum was exposed to ligate the distal ileocecal valve by silk suture (medical suture thread No. 1 & No. 2, www. lead-care.com), Two-holes were made at the cecum by a thread so as to exude the certain amount of fecal material. The cecum was put into the abdominal cavity together with fecal material and physiological saline solution was subcutaneously injected thereto to induce sepsis.
In particular, the suturing position of the distal ileocecal valve was changed and the number of puncture was more than 2 to increase the amount of fecal material in this experiment in order to inducing severe sepsis CLP model.

Setting [1] is: imipenem 25 mg/kg, HS-23 40 mg/kg.

As for `C[C@@H](O)[C@H]1C(=O)N2C(C(=O)O)=C(SCCN=CN)C[C@H]12` [Imipenem, imipenem], the “survival rate at 1st day after the CLP” value (imipenem 25 mg/kg every 12 hours for 4 days, HS-23 40 mg/kg i.v.) was determined as 83%. Under setting [1], the “final survival rate at 10th days” value worked out at 33%, the “survival rate at 2nd day after the CLP” value worked out at 58%, the “survival rate at 3rd day after the CLP” value is on record as 50% and the “survival rate at 4th day to 10th day after the CLP” value is given as 42%.
